From publication PMC4015918, “Conjugation to a SMAC mimetic potentiates sigma-2 ligand induced tumor cell death in ovarian cancer” (Molecular Cancer, 2014) come the findings set out here.

What all share (assay type): cell-based
Test [1] has as its system caspase 3, caspase 8, and caspase 9. The test can be described thus: Western blot for precursors and activated forms of caspases 8, 9 and 3. The conditions noted are these: 10 μM, 24 hours, different ovarian cancer cell lines. On the procedure:
(§1) Figure 3 Treatment with SW IV-134 results in caspase-mediated cell death. (A) Cells were treated with vehicle only (Ctrl.), SW43 (10 μM), and SW IV-134 (10 μM) for 24 hours. Cell lysates were subjected to Western blot analysis, and probed with antibodies specific for the precursors and activated forms of caspases 8, 9, and 3. (B) SKOV3 cells were treated with SW IV-134 at indicated doses either alone or in the presence of the pan-caspase inhibitor Z-VAD-FMK (20 μM) for 18 hours. Cell viability was determined by CellTiter-Glo assays (p < 0.018, Student’s t-test).
Cells were lysed in radioimmunoprecipitation assay buffer [50 mM Tris, 150 mM sodium chloride, 1.0 mM EDTA, 1% Nonidet P40, and 0.25% SDS (pH 7.0)], supplemented with complete protease inhibitor cocktail (Roche, Mannheim) and phosphatase inhibitor cocktail 1 (Sigma Chemical Co., St. Louis, MO). The protein concentration was determined using a BioRad Dc protein assay kit (Bio-Rad Laboratories, Hercules, CA). Lysates containing 30 μg of protein were run on a 12% polyacrylamide gel and transferred to a PVDF membrane (Bio-Rad Laboratories, Hercules, CA). […]

The test system of test [2] is TNFα. The test can be described thus: TNFα ELISA of cell culture supernatants. The conditions noted are these: SKOV3 conditioned medium, 1 μM and 3 μM. On the procedure: Figure 5 SW IV-134 induces activation of the TNFα-dependent extrinsic death pathway. (A) Quantitative real-time PCR analysis of TNFα mRNA expression was done on RNA samples derived from SKOV3 cells treated with SW IV-134 (1 μM and 3 μM) for indicated time periods. All values were normalized to a GAPDH internal control (p < 0.0001, one-way ANOVA). (B) SKOV3 cells were treated with SW IV-134 (1 μM and 3 μM) and cell-culture supernatants were collected at 4, 12, and 24 hours after treatment, and subsequently examined by anti-TNFα ELISA according to manufacturer’s instructions (p < 0.0001, one-way ANOVA). (C) SKOV3 cells were treated with SW IV-134 at indicated doses either alone or in the presence of anti-TNFα blocking antibody for 18 hours. Cell viability was determined as described in the experimental methods (p < 0.019, Student’s t-test).
SKOV3 cells were treated with SW IV-134 (1 μM and 3 μM). Cell culture supernatants were collected at 4, 12, and 24 hours after treatment. Medium was collected, floating cells were removed by centrifugation at 1200 × g for 5 minutes, and samples were frozen at -20°C until analysis. TNFα ELISA was performed using a quantitative high sensitivity sandwich immunoassay from eBioscience (San Diego, CA) as per the manufacturer’s instructions.
(In general: An ELISA detects its analyte on a solid surface through an enzyme-linked reagent.)

In test [3] the test system is SKOV3 cells. The test can be described thus: SKOV3 cell viability (CellTiter-Glo) with SW IV-134 alone or with pathway blockers. On the procedure:
as §1
Figure 4 SW IV-134 engages in SMAC-dependent pathway activation. (A) SKOV3 cells were treated with vehicle only (Ctrl.), SW43 (10 μM), and SW IV-134 (10 μM) for 4 hours and cell lysates were subjected to Western blot analysis using antibodies against XIAP, cIAP-1, cIAP-2, NF-қB and NIK. While XIAP seems unaffected under the conditions used, cIAP-1 and cIAP-2 proteins are readily undetectable shortly post treatment. SW IV-134 treatment also leads to accumulation of NF-қB inducing kinase (NIK) and activation of NF-қB pathway. (B) SKOV3 cells were treated with SW IV-134 at the indicated doses either alone or in the presence of proteasome inhibitor MG132 (20 μM) for 18 hours. […] Cell viability was determined as described in the experimental methods (p < 0.011, Student’s t-test).
Figure 5 SW IV-134 induces activation of the TNFα-dependent extrinsic death pathway. (A) Quantitative real-time PCR analysis of TNFα mRNA expression was done on RNA samples derived from SKOV3 cells treated with SW IV-134 (1 μM and 3 μM) for indicated time periods. All values were normalized to a GAPDH internal control (p < 0.0001, one-way ANOVA). […] Cell viability was determined as described in the experimental methods (p < 0.019, Student’s t-test).
Cells (1 × 10^4) were seeded into 96 well plates. […] Cell viability was determined 18 hours after treatment using CellTiter-Glo Luminiscent Viability Assay (Promega, Madison, WI). Data were recorded with a SpectraMax Gemini microplate spectrofluorometer, Molecular Devices (Silicon Valley, CA).
For orientation: In ATP-based viability assays light output follows the ATP content of the culture.

With `COc1ccc(C)cc1NC(=O)OC1CC2CCCC(C1)N2CCCCCCCCCCN[C@@H](C)C(=O)N[C@H](C(=O)N1CCC[C@H]1C(=O)N[C@@H]1CCCc2ccccc21)C(C)(C)C` (stereo partly shown) [SW IV-134], the “Activation of caspase 3, caspase 8, and caspase 9” value in test [1] is on record as “induced”. Also, the figures for the TNFα protein secretion entry in test [2] (4 hours), in test [2] (12 hours) and in test [2] (24 hours) were “undetectable”, “mildly elevated” and “highest levels”, respectively. In addition, the “Cell death induced by SW IV-134 in the presence of TNFα-blocking antibody” value in test [3] (SKOV3, 18 hours) is given as “significant protection from cell death”. For the same compound, the “SW IV-134 mediated cell death in the presence of proteasome inhibitor MG132” value in test [3] (SKOV3, MG132 20 μM, 18 hours) is “significantly reduced”. Also, the “SW IV-134 induced cell death in the presence of pan-caspase inhibitor Z-VAD-FMK” value in test [3] (SKOV3, Z-VAD-FMK 20 μM, 18 hours) is recorded as “significantly reduced”.
